Data: patent publication EP4722207A1, “OXOISOINDOLINYL-SUBSTITUTED TETRAHYDROPYRIMIDINEDIONE DERIVATIVE AND USE THEREOF” (Gluetacs Therapeutics (Shanghai) Co., Ltd., priority 2023, dated 2024)

Key:
WEE1 = molecular target: T1, WEE1 (Homo sapiens, UniProt P30291+Q96SW2); assay: Western-blot assay, substrate protein degradation in hPBMCs: WEE1; type: cell-based; settings: 24 hours of compound treatment, 50 nM and 500 nM
T1 construct: effects of the compounds of the present disclosure on the expression of target proteins in cells; endogenous in cells; host or cells: human PBMCs (hPBMCs)
T1 sequence (P30291 whole entry): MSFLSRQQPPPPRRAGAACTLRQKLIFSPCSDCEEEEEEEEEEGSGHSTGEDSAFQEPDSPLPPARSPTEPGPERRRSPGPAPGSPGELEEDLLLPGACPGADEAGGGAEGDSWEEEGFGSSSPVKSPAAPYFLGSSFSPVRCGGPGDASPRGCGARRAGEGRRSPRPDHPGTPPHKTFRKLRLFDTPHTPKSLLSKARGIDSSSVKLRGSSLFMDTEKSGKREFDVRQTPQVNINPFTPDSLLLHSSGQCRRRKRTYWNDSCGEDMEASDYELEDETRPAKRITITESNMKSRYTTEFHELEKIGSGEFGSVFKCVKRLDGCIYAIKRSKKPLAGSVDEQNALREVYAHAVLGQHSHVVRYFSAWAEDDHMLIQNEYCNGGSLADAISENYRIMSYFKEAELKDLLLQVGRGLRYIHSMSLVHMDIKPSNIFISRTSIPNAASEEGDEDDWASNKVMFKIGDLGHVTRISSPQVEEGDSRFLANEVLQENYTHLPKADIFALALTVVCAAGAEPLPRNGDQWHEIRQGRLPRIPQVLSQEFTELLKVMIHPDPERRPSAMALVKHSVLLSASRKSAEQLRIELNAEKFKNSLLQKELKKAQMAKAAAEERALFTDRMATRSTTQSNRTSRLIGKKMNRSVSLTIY
T1 sequence (Q96SW2 whole entry): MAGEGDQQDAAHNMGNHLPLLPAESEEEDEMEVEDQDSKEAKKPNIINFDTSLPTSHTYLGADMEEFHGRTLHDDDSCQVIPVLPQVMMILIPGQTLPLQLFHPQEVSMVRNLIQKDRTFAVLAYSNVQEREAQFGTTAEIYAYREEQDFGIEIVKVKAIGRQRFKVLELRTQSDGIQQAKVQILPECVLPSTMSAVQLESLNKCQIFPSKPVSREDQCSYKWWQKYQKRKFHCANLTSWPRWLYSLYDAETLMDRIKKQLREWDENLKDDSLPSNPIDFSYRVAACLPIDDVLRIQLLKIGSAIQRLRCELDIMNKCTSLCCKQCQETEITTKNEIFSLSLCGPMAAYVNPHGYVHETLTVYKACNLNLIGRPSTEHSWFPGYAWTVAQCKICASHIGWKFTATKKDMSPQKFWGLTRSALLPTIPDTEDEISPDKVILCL
T1 sequence (Q16531 whole entry partner): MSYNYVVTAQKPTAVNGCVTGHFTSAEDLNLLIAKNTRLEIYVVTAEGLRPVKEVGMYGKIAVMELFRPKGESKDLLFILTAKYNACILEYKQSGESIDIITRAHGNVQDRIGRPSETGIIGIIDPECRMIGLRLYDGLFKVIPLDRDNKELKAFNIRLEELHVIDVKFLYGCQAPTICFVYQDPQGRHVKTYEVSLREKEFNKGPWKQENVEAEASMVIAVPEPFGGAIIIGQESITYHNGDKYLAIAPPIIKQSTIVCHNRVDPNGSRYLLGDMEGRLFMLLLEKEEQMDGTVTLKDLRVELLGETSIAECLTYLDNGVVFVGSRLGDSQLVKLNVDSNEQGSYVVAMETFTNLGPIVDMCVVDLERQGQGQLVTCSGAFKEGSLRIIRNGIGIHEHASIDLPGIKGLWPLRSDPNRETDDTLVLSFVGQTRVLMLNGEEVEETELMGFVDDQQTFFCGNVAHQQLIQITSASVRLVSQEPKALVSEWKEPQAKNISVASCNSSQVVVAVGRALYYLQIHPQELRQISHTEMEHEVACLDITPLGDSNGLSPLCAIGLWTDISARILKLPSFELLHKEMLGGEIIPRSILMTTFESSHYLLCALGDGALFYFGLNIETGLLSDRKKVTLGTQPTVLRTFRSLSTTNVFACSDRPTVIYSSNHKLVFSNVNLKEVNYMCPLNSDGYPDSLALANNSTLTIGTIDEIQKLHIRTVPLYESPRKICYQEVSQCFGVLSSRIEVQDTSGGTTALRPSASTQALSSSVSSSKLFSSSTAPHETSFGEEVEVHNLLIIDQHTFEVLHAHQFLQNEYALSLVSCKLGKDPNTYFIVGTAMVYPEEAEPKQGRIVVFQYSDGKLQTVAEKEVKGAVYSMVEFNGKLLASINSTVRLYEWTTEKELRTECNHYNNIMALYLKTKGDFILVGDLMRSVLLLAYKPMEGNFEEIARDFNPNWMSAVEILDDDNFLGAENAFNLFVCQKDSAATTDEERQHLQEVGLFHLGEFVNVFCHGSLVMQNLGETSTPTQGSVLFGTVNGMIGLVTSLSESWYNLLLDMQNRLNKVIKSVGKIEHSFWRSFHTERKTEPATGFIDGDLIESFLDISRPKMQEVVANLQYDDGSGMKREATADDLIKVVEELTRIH

IKZF1 = molecular target: T2, IKZF1 (Homo sapiens, UniProt Q13422+Q96SW2); assay: Western-blot assay, substrate protein degradation in hPBMCs: IKZF1; type: cell-based; settings: 24 hours of compound treatment, 50 nM and 500 nM
T2 construct: effects of the compounds of the present disclosure on the expression of target proteins in cells; endogenous in cells; host or cells: human PBMCs (hPBMCs)
T2 sequence (Q13422 whole entry): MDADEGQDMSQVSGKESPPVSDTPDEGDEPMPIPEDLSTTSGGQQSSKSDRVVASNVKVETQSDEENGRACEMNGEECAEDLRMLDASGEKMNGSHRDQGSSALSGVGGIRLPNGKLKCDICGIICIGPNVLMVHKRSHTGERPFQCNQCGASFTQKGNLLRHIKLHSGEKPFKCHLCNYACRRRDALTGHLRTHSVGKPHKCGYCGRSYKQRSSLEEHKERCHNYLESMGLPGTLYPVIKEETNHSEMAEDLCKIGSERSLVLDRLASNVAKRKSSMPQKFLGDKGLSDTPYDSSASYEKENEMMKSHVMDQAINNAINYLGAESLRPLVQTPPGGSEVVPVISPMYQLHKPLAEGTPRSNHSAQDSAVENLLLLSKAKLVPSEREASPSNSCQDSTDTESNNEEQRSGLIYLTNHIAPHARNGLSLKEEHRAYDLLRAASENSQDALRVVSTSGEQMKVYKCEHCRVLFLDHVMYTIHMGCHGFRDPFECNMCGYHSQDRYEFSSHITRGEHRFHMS
T2 sequence (Q96SW2 whole entry): as the sequence (Q96SW2 whole entry) above
T2 sequence (Q16531 whole entry partner): as the sequence (Q16531 whole entry partner) above

IKZF2 = molecular target: T3, IKZF2 (Homo sapiens, UniProt Q96SW2+Q9UKS7); assay: Western-blot assay, substrate protein degradation in hPBMCs: IKZF2; type: cell-based; settings: 24 hours of compound treatment, 50 nM and 500 nM
T3 construct: effects of the compounds of the present disclosure on the expression of target proteins in cells; endogenous in cells; host or cells: human PBMCs (hPBMCs)
T3 sequence (Q9UKS7 whole entry): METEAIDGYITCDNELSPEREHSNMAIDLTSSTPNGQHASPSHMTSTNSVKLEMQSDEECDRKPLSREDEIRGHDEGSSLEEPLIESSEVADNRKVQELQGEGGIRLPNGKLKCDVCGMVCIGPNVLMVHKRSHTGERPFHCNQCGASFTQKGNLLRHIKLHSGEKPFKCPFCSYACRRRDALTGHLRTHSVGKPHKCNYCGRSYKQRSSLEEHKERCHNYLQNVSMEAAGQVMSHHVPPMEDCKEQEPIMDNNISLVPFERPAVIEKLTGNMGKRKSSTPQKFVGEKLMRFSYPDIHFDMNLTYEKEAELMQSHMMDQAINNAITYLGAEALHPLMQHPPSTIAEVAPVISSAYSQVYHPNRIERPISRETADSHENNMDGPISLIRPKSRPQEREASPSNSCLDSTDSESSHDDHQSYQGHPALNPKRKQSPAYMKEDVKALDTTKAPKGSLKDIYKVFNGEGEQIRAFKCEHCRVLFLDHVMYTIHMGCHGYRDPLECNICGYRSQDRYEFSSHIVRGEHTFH
T3 sequence (Q96SW2 whole entry): as the sequence (Q96SW2 whole entry) above
T3 sequence (Q16531 whole entry partner): as the sequence (Q16531 whole entry partner) above

IKZF3 = molecular target: T4, IKZF3 (Homo sapiens, UniProt Q96SW2+Q9UKT9); assay: Western-blot assay, substrate protein degradation in hPBMCs: IKZF3; type: cell-based; settings: 24 hours of compound treatment, 50 nM and 500 nM
T4 construct: effects of the compounds of the present disclosure on the expression of target proteins in cells; endogenous in cells; host or cells: human PBMCs (hPBMCs)

CK1α = molecular target: T5, CK1α (Homo sapiens, UniProt P48729+Q96SW2); assay: Western-blot assay, substrate protein degradation in hPBMCs: CK1α; type: cell-based; settings: 24 hours of compound treatment, 50 nM and 500 nM
T5 construct: effects of the compounds of the present disclosure on the expression of target proteins in cells; endogenous in cells; host or cells: human PBMCs (hPBMCs)
T5 sequence (P48729 whole entry): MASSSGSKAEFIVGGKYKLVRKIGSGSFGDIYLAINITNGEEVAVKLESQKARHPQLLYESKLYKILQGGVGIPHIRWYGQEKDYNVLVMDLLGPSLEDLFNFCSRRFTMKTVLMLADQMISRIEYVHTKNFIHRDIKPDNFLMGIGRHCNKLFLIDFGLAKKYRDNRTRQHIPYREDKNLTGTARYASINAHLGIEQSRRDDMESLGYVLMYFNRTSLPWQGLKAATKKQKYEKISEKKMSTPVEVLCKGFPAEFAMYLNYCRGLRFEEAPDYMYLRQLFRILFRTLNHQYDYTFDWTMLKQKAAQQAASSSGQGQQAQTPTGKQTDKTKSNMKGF
T5 sequence (Q96SW2 whole entry): as the sequence (Q96SW2 whole entry) above
T5 sequence (Q16531 whole entry partner): as the sequence (Q16531 whole entry partner) above

GSPT1 = molecular target: T6, GSPT1 (Homo sapiens, UniProt P15170+Q96SW2); assay: Western-blot assay, substrate protein degradation in hPBMCs: GSPT1; type: cell-based; settings: 24 hours of compound treatment, 50 nM and 500 nM
T6 construct: effects of the compounds of the present disclosure on the expression of target proteins in cells; endogenous in cells; host or cells: human PBMCs (hPBMCs)
T6 sequence (P15170 whole entry): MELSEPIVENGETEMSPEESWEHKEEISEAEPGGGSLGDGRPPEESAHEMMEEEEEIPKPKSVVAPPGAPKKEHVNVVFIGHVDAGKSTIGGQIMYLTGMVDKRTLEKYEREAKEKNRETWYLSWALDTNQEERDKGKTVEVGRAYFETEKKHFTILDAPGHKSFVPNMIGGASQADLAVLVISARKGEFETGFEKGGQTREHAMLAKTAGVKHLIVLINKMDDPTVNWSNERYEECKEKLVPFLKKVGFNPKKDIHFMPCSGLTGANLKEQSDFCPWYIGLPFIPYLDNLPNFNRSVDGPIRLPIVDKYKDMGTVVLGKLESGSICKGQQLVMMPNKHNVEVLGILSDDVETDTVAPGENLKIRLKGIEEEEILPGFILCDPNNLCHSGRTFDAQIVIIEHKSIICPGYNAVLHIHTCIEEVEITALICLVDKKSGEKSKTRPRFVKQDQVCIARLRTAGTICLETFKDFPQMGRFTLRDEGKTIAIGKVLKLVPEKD
T6 sequence (Q96SW2 whole entry): as the sequence (Q96SW2 whole entry) above
T6 sequence (Q16531 whole entry partner): as the sequence (Q16531 whole entry partner) above

H292 = assay: Cell viability assay (CellTiter-Meiluncell Luminescent), tumor cell proliferation, H292; settings: Homo sapiens, NCI-H292, 96 h; for inhibition at 0.01 µM: read-out: Inhibition Rate at 10 nM (%); for inhibition at 0.5 µM: read-out: Inhibition Rate at 500 nM (%)
Experimental: (§1) The tumor cells used herein were cultured in a cell culture medium listed in table 2 at 37°C in an incubator with 5% CO2. Prior to experimentation, all cell lines used were correctly identified by STR profiling, and tested negative for mycoplasma contamination using a mycoplasma detection kit through routine screenings.
(§2) On the following day, the test compounds of the present disclosure were subjected to serial dilution. […] Subsequently, 0.5 µL of the test compound dilution was transferred into the 96-well plate containing the cells, with each well containing 100 µL of cell culture medium. […] Into the 96-well plate, the diluted test compounds and corresponding detection reagents were added, resulting in final test compound concentrations of 500 nM and 10 nM, respectively. The experimental procedure is described below using the diluted 2 µM test compound as an example.
(§3) After the cells were treated with the compounds of the present disclosure for a specified period, the cell viability assay reagent was added to the culture medium according to the kit's instructions to determine cell viability. […] All controls were treated using the same procedure as the compounds of the present disclosure. The growth inhibition curves for the compounds of the present disclosure were plotted using Prism GraphPad software, and the IC50 values were calculated therefrom.

H2228 = assay: Cell viability assay (CellTiter-Meiluncell Luminescent), tumor cell proliferation, H2228; settings: Homo sapiens, NCI-H2228, 96 h; for inhibition at 0.01 µM: read-out: Inhibition Rate at 10 nM (%); for inhibition at 0.5 µM: read-out: Inhibition Rate at 500 nM (%)
MDA-MB-231 = assay: Cell viability assay (CellTiter-Meiluncell Luminescent), tumor cell proliferation, MDA-MB-231; settings: Homo sapiens, MDA-MB-231, 96 h; for inhibition at 0.01 µM: read-out: Inhibition Rate at 10 nM (%); for inhibition at 0.5 µM: read-out: Inhibition Rate at 500 nM (%)
MV-4-11 = assay: Cell viability assay (CellTiter-Meiluncell Luminescent), tumor cell proliferation, MV-4-11; settings: Homo sapiens, MV4-11, 96 h; for inhibition at 0.01 µM: read-out: Inhibition Rate at 10 nM (%); for inhibition at 0.5 µM: read-out: Inhibition Rate at 500 nM (%)
MM.1S = assay: Cell viability assay (CellTiter-Meiluncell Luminescent), tumor cell proliferation, MM.1S; settings: Homo sapiens, MM1.S, 96 h; for inhibition at 0.01 µM: read-out: Inhibition Rate at 10 nM (%); for inhibition at 0.5 µM: read-out: Inhibition Rate at 500 nM (%)
Experimental: as §1, §2, §3

O=C1CCN(N2Cc3cc(CNC45CC6CC(CC(O)(C6)C4)C5)ccc3C2=O)C(=O)N1 [GT-07784, 1-(5-((((1r,3s,5R,7S)-3-hydroxyadamantan-1-yl)amino)methyl)-1-oxoisoindolin-2-yl)dihydropyrimidine-2,4(1H,3H)-dione]
substrate protein remaining % WEE1 (WEE1): B (80%< substrate protein remaining %≤ 100%) | substrate protein remaining % IKZF1 (IKZF1): B (80%< substrate protein remaining %≤ 100%) | substrate protein remaining % IKZF2 (IKZF2): A (0% ≤ substrate protein remaining % ≤ 80%) | substrate protein remaining % IKZF3 (IKZF3): B (80%< substrate protein remaining %≤ 100%) | substrate protein remaining % CK1α (CK1α): B (80%< substrate protein remaining %≤ 100%) | substrate protein remaining % GSPT1 (GSPT1): B (80%< substrate protein remaining %≤ 100%) | inhibition at 0.01 µM (H292): 20 to 40% | inhibition at 0.5 µM (H292): 20 to 40% | inhibition at 0.01 µM (H2228): 25 to 30% | inhibition at 0.5 µM (H2228): 30 to 40% | inhibition at 0.01 µM (MDA-MB-231): 18 to 25% | inhibition at 0.5 µM (MDA-MB-231): 25 to 40%

O=C1CCN(N2C(=O)c3ccc(CNC45CC6CC(CC(O)(C6)C4)C5)cc3C2=O)C(=O)N1 [GT-07786, 2-(2,4-dioxotetrahydropyrimidin-1(2H)-yl)-5-((((1r,3s,5R,7S)-3-hydroxyadamantan-1-yl)amino)methyl)isoindoline-1,3-dione]
substrate protein remaining % WEE1 (WEE1): B (80%< substrate protein remaining %≤ 100%) | substrate protein remaining % IKZF1 (IKZF1): B (80%< substrate protein remaining %≤ 100%) | substrate protein remaining % IKZF2 (IKZF2): B (80%< substrate protein remaining %≤ 100%) | substrate protein remaining % IKZF3 (IKZF3): B (80%< substrate protein remaining %≤ 100%) | substrate protein remaining % CK1α (CK1α): B (80%< substrate protein remaining %≤ 100%) | substrate protein remaining % GSPT1 (GSPT1): A (0% ≤ substrate protein remaining % ≤ 80%) | inhibition at 0.01 µM (H292): 10 to 15% | inhibition at 0.5 µM (H292): 20 to 40% | inhibition at 0.01 µM (H2228): 10 to 15% | inhibition at 0.5 µM (H2228): 25 to 30% | inhibition at 0.01 µM (MDA-MB-231): 15 to 18% | inhibition at 0.5 µM (MDA-MB-231): 25 to 40%

Cc1sc2ncnc(N3CCN(Cc4ccc5c(c4)CN(N4CCC(=O)NC4=O)C5=O)CC3)c2c1C [GT-08061, 1-(5-((4-(5,6-dimethylthieno[2,3-d]pyrimidin-4-yl)piperazin-1-yl)methyl)-1-oxoisoindolin-2-yl)dihydropyrimidine-2,4(1H,3H)-dione]
substrate protein remaining % WEE1 (WEE1): B (80%< substrate protein remaining %≤ 100%) | substrate protein remaining % IKZF1 (IKZF1): B (80%< substrate protein remaining %≤ 100%) | substrate protein remaining % IKZF2 (IKZF2): A (0% ≤ substrate protein remaining % ≤ 80%) | substrate protein remaining % IKZF3 (IKZF3): A (0% ≤ substrate protein remaining % ≤ 80%) | substrate protein remaining % CK1α (CK1α): B (80%< substrate protein remaining %≤ 100%) | substrate protein remaining % GSPT1 (GSPT1): B (80%< substrate protein remaining %≤ 100%) | inhibition at 0.01 µM (H2228): 10 to 15% | inhibition at 0.5 µM (H2228): 25 to 30% | inhibition at 0.01 µM (MDA-MB-231): 10 to 15% | inhibition at 0.5 µM (MDA-MB-231): 18 to 25%

O=C1CCN(N2Cc3cc(CN4CCC(c5ncnc6scc(-c7ccccc7)c56)CC4)ccc3C2=O)C(=O)N1 [GT-08086, 1-(1-oxo-5-((4-(5-phenylthieno[2,3-d]pyrimidin-4-yl)piperidin-1-yl)methyl)isoindolin-2-yl)dihydropyrimidine-2,4(1H,3H)-dione]
inhibition at 0.01 µM (H292): 20 to 40% | inhibition at 0.5 µM (H292): 20 to 40% | inhibition at 0.01 µM (H2228): 20 to 25% | inhibition at 0.5 µM (H2228): 20 to 25% | inhibition at 0.01 µM (MDA-MB-231): 25 to 40% | inhibition at 0.5 µM (MDA-MB-231): 25 to 40%

CC(C)c1cc2c(N3CCN(Cc4ccc5c(c4)C(=O)N(N4CCC(=O)NC4=O)C5=O)CC3)ncnc2s1 [GT-08093, 2-(2,4-dioxotetrahydropyrimidin-1(2H)-yl)-5-((4-(6-isopropylthieno[2,3-d]pyrimidin-4-yl)piperazin-1-yl)methyl)isoindoline-1,3-dione]
substrate protein remaining % WEE1 (WEE1): A (0% ≤ substrate protein remaining % ≤ 80%) | substrate protein remaining % IKZF1 (IKZF1): B (80%< substrate protein remaining %≤ 100%) | substrate protein remaining % IKZF2 (IKZF2): B (80%< substrate protein remaining %≤ 100%) | substrate protein remaining % IKZF3 (IKZF3): B (80%< substrate protein remaining %≤ 100%) | substrate protein remaining % CK1α (CK1α): A (0% ≤ substrate protein remaining % ≤ 80%) | substrate protein remaining % GSPT1 (GSPT1): A (0% ≤ substrate protein remaining % ≤ 80%) | inhibition at 0.01 µM (H292): 15 to 20% | inhibition at 0.5 µM (H292): 15 to 20% | inhibition at 0.01 µM (H2228): 20 to 25% | inhibition at 0.5 µM (H2228): 20 to 25% | inhibition at 0.01 µM (MV-4-11): 40 to 60% | inhibition at 0.5 µM (MV-4-11): 60 to 80%

O=C1CCN(N2C(=O)c3ccc(CN4CCN(c5ncnc6scc(-c7ccccc7)c56)CC4)cc3C2=O)C(=O)N1 [GT-08098, 2-(2,4-dioxotetrahydropyrimidin-1(2H)-yl)-5-((4-(5-phenylthieno[2,3-d]pyrimidin-4-yl)piperazin-1-yl)methyl)isoindoline-1,3-dione]
substrate protein remaining % WEE1 (WEE1): B (80%< substrate protein remaining %≤ 100%) | substrate protein remaining % IKZF1 (IKZF1): B (80%< substrate protein remaining %≤ 100%) | substrate protein remaining % IKZF2 (IKZF2): B (80%< substrate protein remaining %≤ 100%) | substrate protein remaining % IKZF3 (IKZF3): B (80%< substrate protein remaining %≤ 100%) | substrate protein remaining % CK1α (CK1α): B (80%< substrate protein remaining %≤ 100%) | substrate protein remaining % GSPT1 (GSPT1): A (0% ≤ substrate protein remaining % ≤ 80%) | inhibition at 0.01 µM (H2228): 10 to 15% | inhibition at 0.5 µM (H2228): 25 to 30% | inhibition at 0.01 µM (MV-4-11): 18 to 25% | inhibition at 0.5 µM (MV-4-11): 18 to 25%

Cc1nc(N2CCN(Cc3ccc4c(c3)C(=O)N(N3CCC(=O)NC3=O)C4=O)CC2)c2c3c(sc2n1)CCC3 [GT-08104, 2-(2,4-dioxotetrahydropyrimidin-1(2H)-yl)-5-((4-(2-methyl-6,7-dihydro-5H-cyclopenta[4,5]thieno[2,3-d]pyrimidin-4-yl)piperazin-1-yl)methyl)isoindoline-1,3-dione]
substrate protein remaining % WEE1 (WEE1): A (0% ≤ substrate protein remaining % ≤ 80%) | substrate protein remaining % IKZF1 (IKZF1): B (80%< substrate protein remaining %≤ 100%) | substrate protein remaining % IKZF2 (IKZF2): A (0% ≤ substrate protein remaining % ≤ 80%) | substrate protein remaining % IKZF3 (IKZF3): A (0% ≤ substrate protein remaining % ≤ 80%) | substrate protein remaining % CK1α (CK1α): B (80%< substrate protein remaining %≤ 100%) | substrate protein remaining % GSPT1 (GSPT1): A (0% ≤ substrate protein remaining % ≤ 80%) | inhibition at 0.01 µM (MM.1S): 20 to 30% | inhibition at 0.5 µM (MM.1S): 30 to 42% | inhibition at 0.01 µM (MV-4-11): 40 to 60% | inhibition at 0.5 µM (MV-4-11): 40 to 60%

Cc1cc2c(C3=CCN(Cc4ccc5c(c4)CN(N4CCC(=O)NC4=O)C5=O)CC3)ncnc2s1 [GT-08157, 1-(5-((4-(6-methylthieno[2,3-d]pyrimidin-4-yl)-3,6-dihydropyridin-1(2H)-yl)methyl)-1-oxoisoindolin-2-yl)dihydropyrimidine-2,4(1H,3H)-dione]
inhibition at 0.01 µM (H292): 20 to 40% | inhibition at 0.5 µM (H292): 15 to 20% | inhibition at 0.01 µM (MM.1S): -5 to 0% | inhibition at 0.5 µM (MM.1S): 80 to 100% | inhibition at 0.01 µM (MV-4-11): 18 to 25% | inhibition at 0.5 µM (MV-4-11): 80 to 100% | inhibition at 0.01 µM (MDA-MB-231): 15 to 18% | inhibition at 0.5 µM (MDA-MB-231): 25 to 40%

O=C1CCN(N2Cc3cc(CN4CC=C(c5ncnc6sc7c(c56)CCCC7)CC4)ccc3C2=O)C(=O)N1 [GT-08178, 1-(1-oxo-5-((4-(5,6,7,8-tetrahydrobenzo[4,5]thieno[2,3-d]pyrimidin-4-yl)-3,6-dihydropyridin-1(2H)-yl)methyl)isoindolin-2-yl)dihydropyrimidine-2,4(1H,3H)-dione]
inhibition at 0.01 µM (H292): 40 to 60% | inhibition at 0.5 µM (H292): 20 to 40% | inhibition at 0.01 µM (MM.1S): 60 to 80% | inhibition at 0.5 µM (MM.1S): 60 to 80% | inhibition at 0.01 µM (MV-4-11): 60 to 80% | inhibition at 0.5 µM (MV-4-11): 80 to 100% | inhibition at 0.01 µM (MDA-MB-231): 18 to 25% | inhibition at 0.5 µM (MDA-MB-231): 18 to 25%
